Experimental data taken from US10399932B2, “Inhibitors of indoleamine-2,3-dioxygenase for the treatment of cancer” (BRISTOL-MYERS SQUIBB COMPANY, priority 2015, dated 2019).

molecular target: human IDO1 (Homo sapiens, UniProt P14902); assay: Assessment of human IDO-1 inhibitory activity in HEK cells (human IDO1/HEK293 cells, Ehrlich reagent, absorbance at 490 nm); type: cell-based; design: expressed in transfected cells; conditions: In Vitro Potency in the HEK Human IDO-1 Cellular Assay
Experimental: Exemplary compounds were tested for inhibition of IDO activity.
HEK293 cells were transfected with a pCDNA-based mammalian expression vector harboring human IDO1 cDNA (NM 002164.2) by electroporation. They were cultured in medium (DMEM with 10% FBS) containing 1 mg/ml G418 for two weeks. Clones of HEK293 cells that stably expressed human IDO1 protein were selected and expanded for IDO inhibition assay.
The human IDO1/HEK293 cells were seeded at 10,000 cells per 50 μL per well with RPMI/phenol red free media contains 10% FBS in a 384-well black wall clear bottom tissue culture plate (Matrix Technologies LLC) 100 nL of certain concentration of compound was then added to each well using ECHO liquid handling systems. The cells were incubated for 20 hours in 37° C. incubator with 5% CO2.
The compound treatments were stopped by adding trichloroacetic acid (Sigma-Aldrich) to a final concentration at 0.2%. The cell plate was further incubated at 50° C. for 30 minute. The equal volume supernatant (20 μL) and 0.2% (w/v) Ehrlich reagent (4-dimethylaminobenzaldehyde, Sigma-Aldrich) in glacial acetic acid were mixed in a new clear bottom 384-well plate. This plate was then incubated at room temperature for 30 minute. The absorbance at 490 nm was measured on Envision plate reader.
Compound IC50 values were calculated using the counts of 500 nM of a reference standard treatment as one hundred percent inhibition, and counts of no compound but DMSO treatment as zero percent inhibition.

Chain of human IDO1 (P14902 whole entry): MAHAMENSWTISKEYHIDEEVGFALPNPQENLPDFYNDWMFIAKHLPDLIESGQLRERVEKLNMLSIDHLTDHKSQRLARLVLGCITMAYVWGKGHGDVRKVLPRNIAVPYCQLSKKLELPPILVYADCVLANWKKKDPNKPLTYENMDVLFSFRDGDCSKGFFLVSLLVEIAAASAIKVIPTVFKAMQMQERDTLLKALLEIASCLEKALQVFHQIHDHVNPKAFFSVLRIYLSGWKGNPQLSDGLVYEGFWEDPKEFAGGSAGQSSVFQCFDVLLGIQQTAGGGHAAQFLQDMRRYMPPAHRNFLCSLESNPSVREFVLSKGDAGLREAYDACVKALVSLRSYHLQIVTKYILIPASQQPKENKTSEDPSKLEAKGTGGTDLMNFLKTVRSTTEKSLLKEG

Row | Structure (SMILES) | IC50
1 | CCC(CC(=O)O)c1cc(F)c(N(CC(C)C)CC(C)C)c(Nc2cnc(OC)nc2)c1 (single isomer, unassigned) [Example 120, 3-(4-(diisobutylamino)-3-fluoro-5-((2-methoxypyrimidin-5-yl)amino)phenyl) pentanoic acid] | < 0.005 µM
2 | CCC(CC(=O)O)c1ccc(N(CC(C)C)C(C)C)c(Nc2ccc(Cl)cc2)c1 (single isomer, unassigned) [Example 728, 3-(3-((4-Chlorophenyl)amino)-4-(isobutyl(isopropyl)amino)phenyl)pentanoic acid] | < 0.005 µM
3 | CCc1ccc(Nc2cc(C(CC)CC(=O)O)cc(F)c2N(CC(C)C)CC(C)C)cc1 (single isomer, unassigned) [Example 112, 3-(4-(diisobutylamino)-3-((4-ethylphenyl)amino)-5-fluorophenyl)pentanoic acid] | < 0.05 µM
4 | CCC(CC(=O)O)c1ccc(N(CC2CC2)C2CCOCC2)c(NC(=O)Nc2cc(C)on2)c1 (single isomer, unassigned) [Example 700, 3-(4-((Cyclopropylmethyl)(tetrahydro-2H-pyran-4-yl)amino)-3-(3-(5-methylisoxazol-3-yl)ureido)phenyl)pentanoic acid] | > 0.05 µM
5 | CCC(CC(=O)O)c1ccc(N2C[C@@H](C)O[C@@H](C)C2)c(Nc2ccc3nc(C)sc3c2)c1 (single isomer, unassigned) [Example 757] | > 0.05 µM
6 | CC(C)CN(CC(C)C)c1c(F)cc(C(CC(=O)O)c2ccccc2)cc1Nc1ccc(Cl)cc1 (single isomer, unassigned) [Example 131, 3-(3-((4-chlorophenyl)amino)-4-(diisobutylamino)-5-fluorophenyl)-3-phenylpropanoic acid] | < 0.05 µM

Continued, values first:

Row | IC50 | Structure (SMILES)
7 | < 0.005 µM | COCC(CC(=O)O)c1cc(F)c(N(CC(C)C)C2CCCCC2)c(NC(=O)Nc2ccc(C)cc2)c1 (single isomer, unassigned) [Example 1161, 3-(4-(cyclohexyl(isobutyl)amino)-3-fluoro-5-(3-(p-tolyl)ureido)phenyl)-4-methoxybutanoic acid]
8 | < 0.005 µM | CCC(CC(=O)O)c1ccc(N(CC(C)C)C2CCCCC2)c(NC(=O)Cc2ccc(C#N)cc2)c1 (racemic) [Example 1086]
9 | < 0.005 µM | CCC(CC(=O)O)c1cc(NC(=O)Nc2ccc(C)cc2F)c(N(CC(C)C)C2CCCCC2)cc1F (single isomer, unassigned) [Example 1121, 3-(4-(Cyclohexyl(isobutyl)amino)-2-fluoro-5-(3-(2-fluoro-4-methylphenyl)ureido)phenyl)pentanoic acid]
10 | > 0.05 µM | CCC(CC(=O)O)c1ccc(N2CCC[C@@H]2C(C)(C)O)c(NC(=O)Nc2ccc(OC)cc2)c1 (single isomer, unassigned) [Example 777]
11 | > 0.05 µM | CCC(CC(=O)O)c1ccc(N2CCC[C@@H]2C(C)(C)O)c(NC(=O)Nc2ccc(C)cc2)c1 (single isomer, unassigned) [Example 779]
12 | < 0.005 µM | COCC(CC(=O)O)c1ccc(N(CC(C)C)C2CCCCC2)c(NC(=O)Nc2ccc(OC)cc2F)c1 (single isomer, unassigned) [Example 1239, 3-(4-(Cyclohexyl(isobutyl)amino)-3-(3-(2-fluoro-4-methoxyphenyl)ureido)phenyl)-4-methoxybutanoic acid]
13 | > 0.05 µM | COc1ncc(Nc2cc(C(C)CC(=O)O)ccc2N2CCC[C@H]2C(C)(C)O)cn1 (single isomer, unassigned) [Example 805]
14 | < 0.05 µM | CCC(CC(=O)O)c1ccc(N2CCOC[C@H]2C(C)C)c(NC(=O)Nc2ccc(Cl)cc2F)c1 (single isomer, unassigned) [Example 908]
15 | > 0.05 µM | CC(C)CN(c1ccc(C(CC(=O)O)C2CC2)cc1NC(=O)Nc1cncnc1)C1CCOCC1 (single isomer, unassigned) [Example 1207 Enantiomer 2, 3-Cyclopropyl-3-(4-(isobutyl(tetrahydro-2H-pyran-4-yl)amino)-3-(3-(pyrimidin-5-yl)ureido)phenyl)propanoic acid]
